Where “and” joins values, the source holds several entries; their conditions need not be identical. Identical values can stand only once. Like-named read-outs stand apart in the source and are kept apart here.
Legend:
[1] = system: Intracellular adenosine; test: In vivo effect on adenosine levels in various rat tissues; set-up: species or system Fischer 344 rats
Procedure: Folinic acid (50 mg/kg) was administered intraperitoneally once daily for fourteen days. […] Hearts were removed from animals and flash frozen in liquid nitrogen with 10 s of death. Liver and lungs were removed en bloc and flash frozen with […]. Brain tissue was subsequently dissected.

[2] = Nakagawa et al. 1981, 1982; cited from earlier work
[3] = Particle size of jet-milled and spray-dried anhydrous DHEA-S (Malvern Mastersizer X, light microscope); type: physicochemical; settings: spray dried material, two batches
Procedure: Approximately 1 g sample was passed through the jet mill, once, and approximately 2 g sample were passed through the jet mill twice. […] The resulting solution was sonicated for 3 minutes and appeared fully dispersed. The dispersed solutions were tested on a Malvern Mastersizer X with a small volume sampler (SVS) attachment. One sample of dispersed material was tested 5 times. The median particle size or D (v, 0.5) of unmilled material was 52.56 μm and the % RSD (relative standard deviation) was 7.61 for the 5 values. The D (v, 0.5) for a single pass through the jet mill was 3.90 μm and the % RSD was 1.27, and the D (v, 0.5) from a double pass through the jet mill 3.25 μm and the % RSD was 3.10.
The solution was spray-dried with a B-191 Mini Spray-Drier (Buchi, Flawil, Switzerland) with an inlet temperature of 55° C., outlet temperature of 40° C., at 100% aspirator, at 10% pump, nitrogen flow at 40 mbar and spray flow at 600 units. The spray-dried product was suspended in hexane and Span85 surfactant added to reduce agglomeration. The dispersions were sonicated with cooling for 3-5 minutes for complete dispersion and the dispersed solutions tested on a Malvern Mastersizer X with a Small Volume Sampler (SVS) attachment. […] Visual examination by light microscope of the dispersions of each batch confirmed that spray drying produced small respirable size particles. […]

[4] = system: HT-29 SF cells; test: Reversal of DHEA effect on cell cycle by medium supplements; type: cell-based, human; settings: 25 FM DHEA, with increasing exposure time
[5] = system: HT-29 SF cells; test: DHEA effect on cell cycle distribution (flow cytometry); type: cell-based, human; settings: 25, 50 or 200 μM DHEA; 24, 48, 72 hours
Procedure: Cells were plated at 10^5/60-mm dish in duplicate. […] Cultures were trypsinized following 0, 24, 48, or 74 hours and fixed and stained using a modification of a procedure of Bauer et al., Cancer Res. 46, 3173-3178 (1986). Briefly, cells were collected by centrifugation and resuspended in cold phosphate-buffered saline. Cells were fixed in 70% ethanol, washed, and resuspended in phosphate-buffered saline.
After 24, 48, and 72 hours, cells were harvested, fixed in ethanol, and stained with propidium iodide, and the DNA content/cell was determined by flow cytometric analysis. The percentage of cells in G1, S, and G2M phases was calculated using the Cellfit cell cycle analysis program. S phase is marked by a quadrangle for clarity. Representative histograms from duplicate determinations are shown. The experiment was repeated three times.

[6] = system: HT-29 SF cells; test: DHEA effect on cell growth (Coulter counter); type: cell-based, human
[7] = Solid-state stability with and without lactose (DHEA formation by HPLC); type: physicochemical; settings: 1 week at 50° C., neat and lactose blend
Excerpt: These conditions were used to stress the formulation in order to predict its long-term stability results. […] The primary degradant is DHEA. […] The materials on accelerated storage become more cohesive with time as evidenced by clumping during sample weighing for chemical analysis. […] This is a considerable disadvantage since lactose is the most commonly used inhalation excipient for dry powder formulations. Continuing with the virtually anhydrous form would mean limiting formulations to neat powder or undertaking more comprehensive safety studies to use a novel excipient.

[8] = system: late asthmatic response; test: Late asthmatic response in patients dosed with DHEA-S; type: in vivo; settings: patients after five days of dosing
[9] = Short-term solution stability of DHEA-S formulation; type: physicochemical
Procedure: Aliquots of this solution are filled into clear glass vials and stored at RT (24-26° C.) and at 40° C. The samples are checked daily for DHEA-S content, DHEA content, and appearance. For each time point, duplicate samples are withdrawn and diluted from each vial. […] The study is stopped on day three. […] The solution should easily be stable for the day of reconstitution in a clinical trial. The following section describes the aerosol properties of this formulation.

[10] = 0.12% NaCl (20 mM Cl^-)
Procedure: The nebulizer is filled with 5 mL of solution and nebulization is continued until the output became visually insignificant (4½ to 5 min.). Nebulizer solutions are tested using a California Instruments AS-6 6-stage impactor with a USP throat. The impactor is run at 30 L/min for 8 s to collect a sample following one minute of nebulization time. At all other times during the experiment, the aerosol is drawn through the by-pass collector at approximately 33 L/min. The collection apparatus, nebulizer, and impactor are rinsed with mobile phase and assayed by HPLC. […] This volume is selected as the practical upper limit for use in a clinical study.

[11] = HPLC analysis of drug degradation during jet milling; type: physicochemical; settings: HPLC peak area versus unmilled standard; single-pass and double-pass
Procedure: Two vials (A; single-pass; 150 mg) and (B double-pass; 600 mg) of the micronized drug were available for determining drug degradation during jet milling micronization. […] The chromatographic peak area for the HPLC assay of the unmilled drug standard solution (10 mg/ml) gave a value of 23,427. […] The chromatographic peak areas for vials A and B were 11,979 and 11,677, respectively.

[12] = for solubility: range of triplicates
Excerpt: The suspensions are then filtered through a 0.2 micron syringe filter and immediately diluted for HPLC analysis. To prepare refrigerated samples, the syringes and filters are stored in the refrigerator for at least one hour before use.

## Nc1nc(=O)c2c([nH]1)NCC(CNc1ccc(C(=O)N[C@@H](CCC(=O)O)C(=O)O)cc1)N2C=O (mixture of isomers) [Folinic Acid, Folinic acid]
[1]; rats, folinic acid 50 mg/kg alone, all organs studied
  effect on adenosine levels when administered alone: increase in adenosine levels for all organs studied
[1]; rats, folinic acid 50 mg/kg coadministered with DHEA or methyltestosterone
  effect of coadministration on steroid-mediated adenosine depletion: completely abrogated steroid-mediated adenosine depletion

## C[C@]12CC[C@H](OS(=O)(=O)[O-])CC1=CC[C@@H]1[C@@H]2CC[C@]2(C)C(=O)CC[C@@H]12.[Na+] [Anhydrous DHEA-S]
[2]
  solid-state properties (in words): low crystallinity and is very hygroscopic
[3]
  mean particle size (Malvern Mastersizer X): 5.07±0.70 μm and 6.66±0.91 μm
  mean particle size (light microscope): 2.4 μm and 2.0 μm

## C[C@]12CC[C@H](O)CC1=CC[C@@H]1[C@@H]2CC[C@]2(C)C(=O)CC[C@@H]12 [DHEA, 3β-hydroxyandrost-5-en-17-one]
[1]; rat, in vivo
  effect on tissue adenosine (in words): multi-organ depletion of adenosine
[4]
  proportion of cells in S phase: progressively reduced the proportion of cells in S phase
[5]
  cell cycle effect (overall, in words): G1 block in HT-29 SF cells in a time- and dose-dependent manner
[6]; 0-200 μM, 0-72 hours
  effect on growth of HT-29 cells (in words): time- and dose-dependent inhibition of growth
[6]; 12.5 μM DHEA
  exposure time after which cell number was reduced compared to controls: 72 h
[6]; 25 μM DHEA
  exposure time after which cell number was reduced compared to controls: 48 h
[6]; 50 μM DHEA
  exposure time after which cell number was reduced compared to controls: 48 h
[6]; 200 μM DHEA
  exposure time after which cell number was reduced compared to controls: 24 h

## CC12CCC3C(CC=C4CC(OS(=O)(=O)[O-])CCC43C)C1CCC2=O.[Na+] (stereo not drawn) [DHEA-S dihydrate]
[7]
  DHEA generated on storage (in words): virtually no DHEA generated

## sodium dehydroepiandrostenone sulfate [DHEA-S]
[8]
  reduction of the late asthmatic response: 33%
[9]; 7.5 mg/mL of DHEA-S in 0.12% NaCl
  stability of nebulizer formulation: stable for at least one day at RT
[9]; 10 mg/mL in 0.12% NaCl, 40° C. (accelerated condition)
  appearance of solution on storage: became cloudy after two days of storage
[10]
  highest solution concentration that will not precipitate during nebulization: approximately 7.5 mg/mL
[2]
  solid-state properties (in words): most stable and crystalline as the dihydrate form
[11]
  degradation of the drug during jet milling micronization: no detectable degradation
[12]; 0.9% NaCl, refrigerated (7-8° C.)
  solubility: 1100 to 1300 µg/mL
[12]; 15° C., interpolated versus reciprocal of absolute temperature
  Ksp: ~1316 mM^2
[12]; refrigerated (7-8° C.), slope of solubility versus reciprocal sodium cation concentration
  equilibrium constant Ksp: 665 mM^2
[12]; ~25° C., 0% NaCl
  solubility: 16500 to 17400 µg/mL
